Measurements as given in US20230203056A1, “HETEROCYCLIC COMPOUNDS” (Hoffmann-La Roche Inc., priority 2020, published 2023).
pIC50: −log10 of the molar value.

biological target: T1, MAGL (Homo sapiens, UniProt Q99685); assay: 2-AG assay: MAGL inhibitory activity, hydrolysis of 2-arachidonoylglycerol to arachidonic acid followed by mass spectrometry; assay type: biochemical; details: 50 pM MAGL, 8 μM 2-arachidonoylglycerol, 15 min preincubation, 30 min incubation at RT
T1 sequence (Q99685 1-303): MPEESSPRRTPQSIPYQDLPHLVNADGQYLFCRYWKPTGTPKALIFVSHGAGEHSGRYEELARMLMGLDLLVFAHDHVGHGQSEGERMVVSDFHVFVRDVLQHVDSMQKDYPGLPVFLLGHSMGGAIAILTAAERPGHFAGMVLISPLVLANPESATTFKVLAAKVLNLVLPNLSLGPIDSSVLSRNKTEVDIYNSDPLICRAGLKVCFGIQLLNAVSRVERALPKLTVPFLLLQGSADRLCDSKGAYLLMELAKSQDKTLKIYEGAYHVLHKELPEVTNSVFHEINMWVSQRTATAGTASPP
Protocol: Compounds were profiled for MAGL inhibitory activity by determining the enzymatic activity by following the hydrolysis of the natural substrate 2-arachidonoylglycerol resulting in arachidonic acid, which can be followed by mass spectrometry. This assay is hereinafter abbreviated “2-AG assay”.
The 2-AG assay was carried out in 384 well assay plates (PP, Greiner Cat #784201) in a total volume of 20 μL. Compound dilutions were made in 100% DMSO (VWR Chemicals 23500.297) in a polypropylene plate in 3-fold dilution steps to give a final concentration range in the assay from 12.5 μM to 0.8 pM. 0.25 μL compound dilutions (100% DMSO) were added to 9 μL MAGL in assay buffer (50 mM TRIS (GIBCO, 15567-027), 1 mM EDTA (Fluka, 03690-100 mL), 0.01% (v/v) Tween. After shaking, the plate was incubated for 15 min at RT. To start the reaction, 10 μL 2-arachidonoylglycerol in assay buffer was added. The final concentrations in the assay was 50 pM MAGL and 8 μM 2-arachidonoylglyerol. After shaking and 30 min incubation at RT, the reaction was quenched by the addition of 40 μL of acetonitrile containing 4 μM of d8-arachidonic acid. The amount of arachidonic acid was traced by an online SPE system (Agilent Rapidfire) coupled to a triple quadrupole mass spectrometer (Agilent 6460). A C18 SPE cartridge (G9205A) was used in an acetonitrile/water liquid setup. The mass spectrometer was operated in negative electrospray mode following the mass transitions 303.1→259.1 for arachidonic acid and 311.1→267.0 for d8-arachidonic acid. The activity of the compounds was calculated based on the ratio of intensities [arachidonic acid/d8-arachidonic acid].

| pIC50 | SMILES |
| --- | --- |
| 8.10 | O=C(N1CC(OCc2ccc(C(F)(F)F)cc2F)C1)N1C[C@@H]2CCc3cn[nH]c3[C@@H]2C1 (racemic) [Example 1, [3-[[2-Fluoro-4-(trifluoromethyl)phenyl]methoxy]azetidin-1-yl]-[rac-(5aR,8aS)-4,5,5a,6,8,8a-hexahydro-1H-pyrrolo[3,4-g]indazol-7-yl]methanone] |
| 7.17 | O=C(N1CC(OCc2ccc(C(F)(F)F)cc2F)C1)N1C[C@@H]2COc3cn[nH]c3[C@@H]2C1 (racemic) [Example 2, [3-[[2-Fluoro-4-(trifluoromethyl)phenyl]methoxy]azetidin-1-yl]-[rac-(1S,9R)-7-oxa-3,4,11-triazatricyclo[7.3.0.0^2,6]dodeca-2(6),4-dien-1l-yl]methanone] |
| 6.31 | O=C(N1C[C@@H]2COc3cn[nH]c3[C@@H]2C1)N1CC2(CC(Cc3ccc(F)cc3F)C2)C1 (single isomer, unassigned) [Example 5, (−)- or (+)-[6-[(2,4-Difluorophenyl)methyl]-2-azaspiro[3.3]heptan-2-yl]-[(1S,9R)-7-oxa-3,4,11-triazatricyclo[7.3.0.0^2,6]dodeca-2(6),4-dien-1l-yl]methanone] |
| 8.05 | O=C(N1C[C@H]2COc3cn[nH]c3[C@H]2C1)N1CC2(CC(Cc3ccc(F)cc3F)C2)C1 (single isomer, unassigned) [Example 6, (+)- or (−)-[6-[(2,4-Difluorophenyl)methyl]-2-azaspiro[3.3]heptan-2-yl]-[(1R,9S)-7-oxa-3,4,11-triazatricyclo[7.3.0.0^2,6]dodeca-2(6),4-dien-11-yl]methanone] |
| 7.30 | O=C(N1CC(OCc2ccc(C(F)(F)F)cc2F)C1)N1C[C@@H]2CCc3nn[nH]c3[C@@H]2C1 (single isomer, unassigned) [Example 7, (−)- or (+)-[3-[[2-Fluoro-4-(trifluoromethyl)phenyl]methoxy]azetidin-1-yl]-[(5aR,8aS)-4,5,5a,6,8,8a-hexahydro-1H-pyrrolo[3,4-e]benzotriazol-7-yl]methanone] |
| 6.28 | O=C(N1CC(OCc2ccc(C(F)(F)F)cc2F)C1)N1C[C@H]2CCc3nn[nH]c3[C@H]2C1 (single isomer, unassigned) [Example 8, (+)- or (−)-[3-[[2-Fluoro-4-(trifluoromethyl)phenyl]methoxy]azetidin-1-yl]-[(5aS,8aR)-4,5,5a,6,8,8a-hexahydro-1H-pyrrolo[3,4-e]benzotriazol-7-yl]methanone] |
| 5.57 | O=C(N1CC(OCc2ccc(C(F)(F)F)cc2F)C1)N1C[C@@H]2OCc3nn[nH]c3[C@@H]2C1 (single isomer, unassigned) [Example 9, (−)- or (+)-[3-[[2-Fluoro-4-(trifluoromethyl)phenyl]methoxy]azetidin-1-yl]-[(1S,9R)-8-oxa-3,4,5,11-tetrazatricyclo[7.3.0.02,6]dodeca-2(6),4-dien-11-yl]methanone] |
| 5.91 | O=C(N1CC(OCc2ccc(C(F)(F)F)cc2F)C1)N1C[C@@H]2c3[nH]nnc3CO[C@@H]2C1 (single isomer, unassigned) [Example 10, (+)- or (−)-[3-[[2-Fluoro-4-(trifluoromethyl)phenyl]methoxy]azetidin-1-yl]-[(1R,9S)-8-oxa-3,4,5,11-tetrazatricyclo[7.3.0.02,6]dodeca-2(6),4-dien-1l-yl]methanone] |
| 7.89 | O=C(N1CC(c2ccc(C3(C(F)(F)F)CC3)cc2)C1)N1C[C@@H]2COc3cn[nH]c3[C@@H]2C1 [Example 3, (−)- or (+)-[(1S,9R)-7-Oxa-3,4,11-triazatricyclo[7.3.0.0^2,6]dodeca-2(6),4-dien-11-yl]-[3-[4-[1-(trifluoromethyl)cyclopropyl]phenyl]azetidin-1-yl]methanone] |
| 6.04 | O=C(N1CC(c2ccc(C3(C(F)(F)F)CC3)cc2)C1)N1C[C@H]2COc3cn[nH]c3[C@H]2C1 [Example 4, (+)- or (−)-[(1R,9S)-7-Oxa-3,4,11-triazatricyclo[7.3.0.0^2,6]dodeca-2(6),4-dien-11-yl]-[3-[4-[1-(trifluoromethyl)cyclopropyl]phenyl]azetidin-1-yl]methanone] |
